Data taken from PMC12723328, “Designing Programmable Peptide Nucleic Acid‐based Nanovaccines for Anticancer Immune Activation” (Small (Weinheim an Der Bergstrasse, Germany), 2025).

How the values were obtained:
[1] = Hydrodynamic size by DLS (Malvern zetasizer) in water; format: physicochemical; settings: in H2O, OVA8 or CpG 5 µM, mean ± SD, n = 3
Experimental: The size and the dispersity of each of the three nanoconstructs in water were determined by Malvern zetasizer. […] (195.1 nm ± 61.1). […] To better understand how PVN nanoparticles are formed, we used LP11[OVA8/CpG/LLP2A] as an example and analyzed the hydrodynamic size, morphology, and spatial distribution of its components in various LP11‐based incomplete PVNs. It is well‐known that Class A CpG ODNs can self‐assemble into nanosized multimers because of their palindromic and poly‐guanine (G) tails.^[ [19], [21], [22] ^] […] To determine whether G‐quadruplex structures formed in the CpG ODN nanoclusters, we used nuclear magnetic resonance (NMR) to detect the CpG structure. […] Furthermore, hybridization with CpG, P3‐OVA8, and LLP2A‐P4 payloads increased the size of the final nanoparticle to 132.6 ± 71.7 nm.
(§1) The size and zeta potential of LPn[OVA8/CpG/LLP2A] in H2O were detected by Malvern DLS zetasizer with the equivalent concentration of OVA8 or CpG at 5 µΜ. The morphology of LPn[OVA8/CpG/LLP2A] was visualized by transmission electron microscope (TEM, 80 kV FEI Talos 120C).

[2] = Zeta potential in H2O (Malvern DLS zetasizer); format: physicochemical; settings: OVA8 or CpG 5 µM, mean ± SD, n = 3
Source text: as §1

[3] = system: co‐culture of RF33.70 cells and the activated BMDCs; assay: IL-2 secretion from co-culture of pretreated BMDCs and RF33.70 cells (ELISA); format: cell-based, mouse; settings: BMDCs pretreated 16 h at 1 µM, co-culture with RF33.70 16 h, n = 3
Experimental: The differentiation of BMDC from bone marrow cells was performed as previously described.^[ [48] ^] 2 × 10^4 cells/well BMDCs were suspended in 200 µL medium without adding IL‐2 and IL‐4. BMDCs were treated with LPn[OVA8/CpG/LLP2A] containing 1 or 2 µM of OVA8 for 16 h. Each group contains approximately equivalent concentrations of CpG and OVA8 based on the data in Table S1 (Supporting Information). After that, the cells were centrifuged at 320 g for 5 min to remove the uninternalized drugs. Then the BMDC cells were resuspended in RPMI medium and were co‐incubated with 10 × 10^4 cells/well of RF33.70 cells for another 16 h. After that, the medium supernatant was collected. The IL‐2 concentration was measured by IL‐2 Mouse ELISA Kit (Thermo Fisher).
For the blocking experiment, BMDC cells were pre‐incubated with an excess of LLP2A‐P4 (100 µM) for 1 h. Then the cells were washed three times with PBS, before the treatment of 1 µM LP11[OVA8/CpG/LLP2A] for 16 h. After that, the cells were washed three times with PBS to get rid of the uninternalized drugs, followed by co‐culturing with RF33.70 cells. The IL‐2 level was quantified by ELISA as mentioned above.

For “CpG: Class A CpG oligonucleotide, toll‐like receptor 9 agonist; 5′ ggGGTCAACGTTGAgggggg 3′, lowercase phosphorothioate (DNA GGGGTCAACGTTGAGGGGGG; DNA, linkages s2 o12 s5 (s phosphorothioate, o phosphodiester), methylation of C not given here; further chemistry not fully specified)”, the average hydrodynamic size [1] was 62.3 ± 14.2 nm, the zeta potential [2] was −24.3 ± 13.3 mV and the “IL‐2 production” value [3] was “barely induced”.

For CCCCGTATGCA [LP11], the zeta potential [2] was about 0 mV and the “IL‐2 production” value [3] was “barely induced”.

TAC‐K‐SIINFEKL [P3‐OVA8] gave a zeta potential [2] of about 0 mV.
